Laboratory results from patent US11267826B2, “Penicillin-binding protein inhibitors” (priority 2017, dated 2022).

Columns and labels:
Type in all cases: cell-based
[1] = tested on: E. coli DH5a with pLBII plasmid with no β-lactamase gene; experiment: Broth microdilution MIC, engineered E. coli control strain (pLBII plasmid, no β-lactamase gene); details: Escherichia coli, read-out: MIC, β-lactamase None
Method: (§1) To determine the ability of test compounds to potentiate the inhibition of the growth of bacterial strains, classic cell based broth microdilution MIC assays were employed. MIC assays are performed according to CLSI methods except where otherwise noted (CLSI, 2011 and CLSI, 2009). The reference strain S. aureus ATCC 29213 and the hyper-permeable E. coli 901C were used to determine the ability of the PBP compounds to inhibit bacterial growth. Briefly, cryo-preserved bacterial cultures of clinical strains are streaked for isolation on appropriate agar medium, in this case Mueller Hinton II agar. Following incubation to allow formation of colonies these plates are sealed with parafilm and stored refrigerated for up to two weeks. For preparation of assay inocula and to ensure low variability, at least 5 colonies are picked from the agar plates with an inoculating loop and aseptically transferred to a culture tube containing 3 mL of Mueller-Hinton Broth (supplemented with divalent cations to required levels based on Manufacturers' certification). The broth culture is grown for 3-5 hours at 37° C. with shaking at 200 rpm. Meanwhile, 2-fold serial dilutions of test compounds are conducted in a 96 well plate with a final volume of 75 μL per well at 2-fold the final desired concentration. After the dilution plates are set up the growing cultures are then diluted in a cuvette containing MH II broth and the optical density is measured at 600 nm. Inocula are diluted such that 75 μL of this culture in Mueller-Hinton Broth results in a starting bacterial concentration of 5×10^5 CFU/mL when added to the dilution plates. The plates are incubated 16-20 hours at 37° C. The MIC is read visually as the lowest concentration well with no bacterial growth.
(§2) To determine if test compounds were affected by various known β-lactamases, the inhibition of the growth of engineered strains of Escherichia coli harboring select single β-lactamases were tested. […]

[2] = tested on: E. coli DH5a harboring CTX-M15; experiment: Broth microdilution MIC, engineered E. coli expressing CTX-M15; details: Escherichia coli, read-out: MIC, β-lactamase CTXM
Method: as §1, §2

[3] = tested on: E. coli DH5a harboring KPC-2; experiment: microbe, parasite or virus in culture; details: Escherichia coli, read-out: MIC, β-lactamase KPC
Method: To determine the ability of test compounds to potentiate the inhibition of the growth of bacterial strains, classic cell based broth microdilution MIC assays were employed. MIC assays are performed according to CLSI methods except where otherwise noted (CLSI, 2011 and CLSI, 2009). The reference strain S. aureus ATCC 29213 and the hyper-permeable E. coli 901C were used to determine the ability of the PBP compounds to inhibit bacterial growth. Briefly, cryo-preserved bacterial cultures of clinical strains are streaked for isolation on appropriate agar medium, in this case Mueller Hinton II agar. Following incubation to allow formation of colonies these plates are sealed with parafilm and stored refrigerated for up to two weeks. For preparation of assay inocula and to ensure low variability, at least 5 colonies are picked from the agar plates with an inoculating loop and aseptically transferred to a culture tube containing 3 mL of Mueller-Hinton Broth (supplemented with divalent cations to required levels based on Manufacturers' certification). The broth culture is grown for 3-5 hours at 37° C. with shaking at 200 rpm. […] After the dilution plates are set up the growing cultures are then diluted in a cuvette containing MH II broth and the optical density is measured at 600 nm. […] The MIC is read visually as the lowest concentration well with no bacterial growth. […]

Measured: MIC

Nc1nc(/C(=N/O)C(=O)N[C@H]2Cc3cccc(C(=O)O)c3OB2O)cs1 [Example 6, (R,Z)-3-(2-(2-aminothiazol-4-yl)-2-(hydroxyimino)acetamido)-2-hydroxy-3,4-dihydro-2H-benzo[e][1,2]oxaborinine-8-carboxylic Acid]
16 µg/mL: all assays above
